Data: paper PMC6437697 (Journal of Medicinal Chemistry, 2019)

Key:
Assay in all cases: KINOMEscan
Type in all cases: binding
Conditions in all cases: read-out: % control activity remaining
PAK3 = target: T1, PAK3 (Homo sapiens, UniProt O75914)
T1 construct: purchased Eurofins DiscoverX KINOMEscan

EPHA4 = target: T2, EPHA4 (Homo sapiens, UniProt P54764)
T2 construct: purchased Eurofins DiscoverX KINOMEscan

ANKK1 = target: T3, ANKK1 (Homo sapiens, UniProt Q8NFD2)
T3 construct: purchased Eurofins DiscoverX KINOMEscan
T3 sequence (Q8NFD2 1-765): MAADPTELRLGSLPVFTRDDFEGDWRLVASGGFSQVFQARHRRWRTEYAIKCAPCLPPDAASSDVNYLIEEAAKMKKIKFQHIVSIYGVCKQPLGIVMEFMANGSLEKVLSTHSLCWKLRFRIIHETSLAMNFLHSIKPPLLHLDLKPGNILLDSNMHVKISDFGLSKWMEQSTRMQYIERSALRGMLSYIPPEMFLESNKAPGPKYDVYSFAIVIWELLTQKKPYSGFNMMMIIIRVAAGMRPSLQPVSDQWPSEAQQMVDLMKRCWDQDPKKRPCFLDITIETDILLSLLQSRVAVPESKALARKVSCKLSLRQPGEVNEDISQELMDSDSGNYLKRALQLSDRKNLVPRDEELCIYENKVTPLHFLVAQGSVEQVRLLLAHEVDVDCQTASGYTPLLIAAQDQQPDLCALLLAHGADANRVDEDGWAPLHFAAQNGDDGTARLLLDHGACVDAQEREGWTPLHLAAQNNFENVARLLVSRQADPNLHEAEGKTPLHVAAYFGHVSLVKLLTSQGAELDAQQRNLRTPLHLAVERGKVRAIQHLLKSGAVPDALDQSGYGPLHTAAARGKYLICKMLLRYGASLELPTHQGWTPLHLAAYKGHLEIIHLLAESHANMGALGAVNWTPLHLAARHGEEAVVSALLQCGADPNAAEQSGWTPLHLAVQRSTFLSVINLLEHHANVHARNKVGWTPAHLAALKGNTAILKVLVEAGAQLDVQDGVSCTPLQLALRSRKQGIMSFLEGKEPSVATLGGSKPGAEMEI

KIT(D816V) = target: T4, KIT(D816V) (Homo sapiens, UniProt P10721, D816V)
T4 construct: purchased Eurofins DiscoverX KINOMEscan
T4 sequence (P10721 26-976 D816V): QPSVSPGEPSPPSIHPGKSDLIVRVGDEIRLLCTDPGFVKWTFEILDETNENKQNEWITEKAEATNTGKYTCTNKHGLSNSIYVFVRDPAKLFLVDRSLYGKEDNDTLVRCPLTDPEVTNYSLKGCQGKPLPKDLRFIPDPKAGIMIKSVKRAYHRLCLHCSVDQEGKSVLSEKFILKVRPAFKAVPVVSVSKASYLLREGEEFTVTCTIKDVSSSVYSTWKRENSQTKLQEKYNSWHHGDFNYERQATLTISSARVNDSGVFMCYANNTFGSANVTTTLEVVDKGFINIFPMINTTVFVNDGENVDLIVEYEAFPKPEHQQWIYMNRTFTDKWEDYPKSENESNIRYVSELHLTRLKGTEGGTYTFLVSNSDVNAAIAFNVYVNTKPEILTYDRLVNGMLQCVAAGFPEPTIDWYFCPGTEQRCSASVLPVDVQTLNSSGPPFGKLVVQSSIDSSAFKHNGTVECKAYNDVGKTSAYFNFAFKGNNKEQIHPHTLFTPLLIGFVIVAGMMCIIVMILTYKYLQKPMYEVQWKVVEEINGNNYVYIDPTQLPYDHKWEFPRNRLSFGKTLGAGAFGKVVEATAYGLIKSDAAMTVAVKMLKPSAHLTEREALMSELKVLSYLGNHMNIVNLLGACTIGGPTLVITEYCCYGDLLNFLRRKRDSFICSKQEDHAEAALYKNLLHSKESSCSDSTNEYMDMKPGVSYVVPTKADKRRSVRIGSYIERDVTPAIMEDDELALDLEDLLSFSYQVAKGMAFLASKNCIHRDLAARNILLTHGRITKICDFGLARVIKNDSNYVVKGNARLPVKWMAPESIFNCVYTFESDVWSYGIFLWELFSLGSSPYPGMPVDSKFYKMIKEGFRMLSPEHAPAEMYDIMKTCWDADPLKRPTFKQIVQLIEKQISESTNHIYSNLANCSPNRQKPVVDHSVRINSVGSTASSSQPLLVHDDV

MAP4K4 = target: T5, MAP4K4 (Homo sapiens, UniProt O95819)
T5 construct: purchased Eurofins DiscoverX KINOMEscan
T5 sequence (O95819 whole entry): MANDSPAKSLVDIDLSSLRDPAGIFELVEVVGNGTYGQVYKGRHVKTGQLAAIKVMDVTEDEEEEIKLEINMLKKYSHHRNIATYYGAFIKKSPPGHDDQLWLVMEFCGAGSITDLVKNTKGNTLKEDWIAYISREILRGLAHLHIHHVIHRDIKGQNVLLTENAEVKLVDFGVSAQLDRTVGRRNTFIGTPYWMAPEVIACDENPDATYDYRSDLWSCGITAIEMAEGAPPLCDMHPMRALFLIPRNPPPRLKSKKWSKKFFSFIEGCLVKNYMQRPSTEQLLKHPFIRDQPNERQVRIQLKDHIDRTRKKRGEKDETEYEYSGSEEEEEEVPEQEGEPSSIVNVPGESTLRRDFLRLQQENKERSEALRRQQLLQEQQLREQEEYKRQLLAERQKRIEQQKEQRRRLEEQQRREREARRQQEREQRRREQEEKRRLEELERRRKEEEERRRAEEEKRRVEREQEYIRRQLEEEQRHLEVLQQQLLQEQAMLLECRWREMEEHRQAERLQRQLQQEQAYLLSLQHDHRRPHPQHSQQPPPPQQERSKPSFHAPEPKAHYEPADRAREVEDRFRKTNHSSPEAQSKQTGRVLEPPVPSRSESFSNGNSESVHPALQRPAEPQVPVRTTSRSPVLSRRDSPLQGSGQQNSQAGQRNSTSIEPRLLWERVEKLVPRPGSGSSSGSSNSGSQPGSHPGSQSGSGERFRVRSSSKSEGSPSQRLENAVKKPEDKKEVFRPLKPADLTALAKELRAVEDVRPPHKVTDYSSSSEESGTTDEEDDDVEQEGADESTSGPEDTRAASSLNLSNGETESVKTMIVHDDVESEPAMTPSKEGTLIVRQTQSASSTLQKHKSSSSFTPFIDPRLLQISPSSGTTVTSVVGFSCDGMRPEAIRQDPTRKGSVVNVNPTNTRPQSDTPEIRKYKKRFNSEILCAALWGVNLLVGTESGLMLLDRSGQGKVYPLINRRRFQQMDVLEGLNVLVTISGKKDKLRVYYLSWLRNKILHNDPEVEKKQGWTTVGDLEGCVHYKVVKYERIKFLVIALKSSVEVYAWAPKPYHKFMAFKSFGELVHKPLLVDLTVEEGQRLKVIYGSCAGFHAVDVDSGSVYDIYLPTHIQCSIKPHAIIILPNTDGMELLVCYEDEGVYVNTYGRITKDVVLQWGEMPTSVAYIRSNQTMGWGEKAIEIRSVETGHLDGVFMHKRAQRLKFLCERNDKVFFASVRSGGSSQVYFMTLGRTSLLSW

ABL1-phosphorylated = target: T6, ABL1-phosphorylated (Homo sapiens, UniProt P00519)
T6 construct: purchased Eurofins DiscoverX KINOMEscan

KIT(L576P) = target: T7, KIT(L576P) (Homo sapiens, UniProt P10721, L576P)
T7 construct: purchased Eurofins DiscoverX KINOMEscan
T7 sequence (P10721 26-976 L576P): as the sequence (P10721 26-976 D816V) above, with L551P, V791D counted along it

CAMK1D = target: T8, CAMK1D (Homo sapiens, UniProt Q8IU85)
T8 construct: purchased Eurofins DiscoverX KINOMEscan
T8 sequence (Q8IU85 whole entry): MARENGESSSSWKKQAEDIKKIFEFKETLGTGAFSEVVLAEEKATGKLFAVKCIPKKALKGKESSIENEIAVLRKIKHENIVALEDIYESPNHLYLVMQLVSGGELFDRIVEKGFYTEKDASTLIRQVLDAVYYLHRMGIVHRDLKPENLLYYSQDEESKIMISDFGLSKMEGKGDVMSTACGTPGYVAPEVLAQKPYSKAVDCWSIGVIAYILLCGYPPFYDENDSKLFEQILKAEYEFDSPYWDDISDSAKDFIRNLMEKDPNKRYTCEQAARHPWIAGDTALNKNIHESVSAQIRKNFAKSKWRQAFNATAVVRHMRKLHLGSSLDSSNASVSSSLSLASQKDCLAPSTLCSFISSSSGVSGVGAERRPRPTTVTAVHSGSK

PFTK1 = target: T9, PFTK1 (Homo sapiens, UniProt O94921)
T9 construct: purchased Eurofins DiscoverX KINOMEscan
T9 sequence (O94921 whole entry): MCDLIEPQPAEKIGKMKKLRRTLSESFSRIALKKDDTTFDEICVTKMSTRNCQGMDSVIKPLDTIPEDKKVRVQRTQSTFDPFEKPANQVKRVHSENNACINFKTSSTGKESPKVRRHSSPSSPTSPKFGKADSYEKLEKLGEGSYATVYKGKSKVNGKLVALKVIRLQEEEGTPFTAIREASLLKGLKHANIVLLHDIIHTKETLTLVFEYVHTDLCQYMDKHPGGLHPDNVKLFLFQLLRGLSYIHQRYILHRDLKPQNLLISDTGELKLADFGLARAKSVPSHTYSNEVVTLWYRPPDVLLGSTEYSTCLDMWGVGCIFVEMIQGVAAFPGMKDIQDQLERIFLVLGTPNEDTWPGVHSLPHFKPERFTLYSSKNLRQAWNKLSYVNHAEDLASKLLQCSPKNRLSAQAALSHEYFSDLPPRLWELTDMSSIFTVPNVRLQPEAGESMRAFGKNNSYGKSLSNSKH

[1] = target: T10, EGFR(L747-S752del, P753S) (Homo sapiens, UniProt P00533, DEL747-752/P753S)
T10 construct: purchased Eurofins DiscoverX KINOMEscan
T10 sequence (P00533 with tags, fused parts or gaps DEL747-752/P753S limits assumed): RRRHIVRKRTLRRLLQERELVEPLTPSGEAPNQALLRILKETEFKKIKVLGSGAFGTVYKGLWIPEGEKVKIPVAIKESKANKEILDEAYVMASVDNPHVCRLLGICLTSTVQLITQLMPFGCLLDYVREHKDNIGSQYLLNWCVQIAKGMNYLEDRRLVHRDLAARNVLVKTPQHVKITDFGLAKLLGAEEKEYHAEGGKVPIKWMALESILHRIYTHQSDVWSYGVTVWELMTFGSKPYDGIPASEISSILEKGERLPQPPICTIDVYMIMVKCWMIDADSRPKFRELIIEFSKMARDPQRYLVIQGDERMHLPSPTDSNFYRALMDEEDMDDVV

PHKG2 = target: T11, PHKG2 (Homo sapiens, UniProt P15735)
T11 construct: purchased Eurofins DiscoverX KINOMEscan
T11 sequence (P15735 1-406): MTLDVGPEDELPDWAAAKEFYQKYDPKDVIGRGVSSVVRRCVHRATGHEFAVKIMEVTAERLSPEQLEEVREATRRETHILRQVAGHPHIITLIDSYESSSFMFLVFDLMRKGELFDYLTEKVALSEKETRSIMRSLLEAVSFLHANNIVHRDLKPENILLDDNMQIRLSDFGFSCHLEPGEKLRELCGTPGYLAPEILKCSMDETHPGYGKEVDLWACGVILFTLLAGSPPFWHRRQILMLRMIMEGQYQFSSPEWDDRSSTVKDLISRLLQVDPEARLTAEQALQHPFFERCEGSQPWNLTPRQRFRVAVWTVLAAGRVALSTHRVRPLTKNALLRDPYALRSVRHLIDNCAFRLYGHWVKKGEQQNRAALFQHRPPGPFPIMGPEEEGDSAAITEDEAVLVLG

TEC = target: T12, TEC (Homo sapiens, UniProt P42680)
T12 construct: purchased Eurofins DiscoverX KINOMEscan
T12 sequence (P42680 1-631): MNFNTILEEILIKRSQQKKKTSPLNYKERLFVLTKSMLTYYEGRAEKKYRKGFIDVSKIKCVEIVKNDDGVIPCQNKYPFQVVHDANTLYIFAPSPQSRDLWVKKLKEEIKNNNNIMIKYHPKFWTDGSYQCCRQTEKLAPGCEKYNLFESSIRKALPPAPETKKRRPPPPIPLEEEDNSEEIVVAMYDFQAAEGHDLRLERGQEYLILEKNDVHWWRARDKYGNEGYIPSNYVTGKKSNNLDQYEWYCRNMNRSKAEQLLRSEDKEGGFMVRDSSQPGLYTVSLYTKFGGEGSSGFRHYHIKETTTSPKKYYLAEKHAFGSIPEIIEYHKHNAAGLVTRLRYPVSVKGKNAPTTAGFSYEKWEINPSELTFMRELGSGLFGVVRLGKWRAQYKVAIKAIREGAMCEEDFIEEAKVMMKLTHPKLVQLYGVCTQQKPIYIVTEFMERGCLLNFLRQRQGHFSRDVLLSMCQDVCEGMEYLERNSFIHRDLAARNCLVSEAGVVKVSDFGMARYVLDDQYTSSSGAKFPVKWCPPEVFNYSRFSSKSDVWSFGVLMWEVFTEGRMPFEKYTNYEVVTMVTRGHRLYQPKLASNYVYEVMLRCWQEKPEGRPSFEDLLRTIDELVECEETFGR

NLK = target: T13, NLK (Homo sapiens, UniProt Q9UBE8)
T13 construct: purchased Eurofins DiscoverX KINOMEscan
T13 sequence (Q9UBE8 1-527): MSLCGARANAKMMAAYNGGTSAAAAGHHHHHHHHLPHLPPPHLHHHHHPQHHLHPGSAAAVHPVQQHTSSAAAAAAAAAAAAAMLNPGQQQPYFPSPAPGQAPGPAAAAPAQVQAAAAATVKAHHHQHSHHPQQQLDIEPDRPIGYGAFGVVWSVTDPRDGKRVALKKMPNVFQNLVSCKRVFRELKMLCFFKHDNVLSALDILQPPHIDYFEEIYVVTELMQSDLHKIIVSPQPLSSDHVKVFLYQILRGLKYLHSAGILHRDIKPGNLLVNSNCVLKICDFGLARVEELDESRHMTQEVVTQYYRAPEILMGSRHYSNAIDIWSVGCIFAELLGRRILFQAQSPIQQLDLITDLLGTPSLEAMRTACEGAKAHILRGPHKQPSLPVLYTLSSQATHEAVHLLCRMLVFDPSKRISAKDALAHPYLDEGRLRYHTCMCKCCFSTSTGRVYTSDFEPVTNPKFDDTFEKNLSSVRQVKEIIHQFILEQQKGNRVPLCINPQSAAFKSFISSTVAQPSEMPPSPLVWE

T1 sequence (O75914 whole entry): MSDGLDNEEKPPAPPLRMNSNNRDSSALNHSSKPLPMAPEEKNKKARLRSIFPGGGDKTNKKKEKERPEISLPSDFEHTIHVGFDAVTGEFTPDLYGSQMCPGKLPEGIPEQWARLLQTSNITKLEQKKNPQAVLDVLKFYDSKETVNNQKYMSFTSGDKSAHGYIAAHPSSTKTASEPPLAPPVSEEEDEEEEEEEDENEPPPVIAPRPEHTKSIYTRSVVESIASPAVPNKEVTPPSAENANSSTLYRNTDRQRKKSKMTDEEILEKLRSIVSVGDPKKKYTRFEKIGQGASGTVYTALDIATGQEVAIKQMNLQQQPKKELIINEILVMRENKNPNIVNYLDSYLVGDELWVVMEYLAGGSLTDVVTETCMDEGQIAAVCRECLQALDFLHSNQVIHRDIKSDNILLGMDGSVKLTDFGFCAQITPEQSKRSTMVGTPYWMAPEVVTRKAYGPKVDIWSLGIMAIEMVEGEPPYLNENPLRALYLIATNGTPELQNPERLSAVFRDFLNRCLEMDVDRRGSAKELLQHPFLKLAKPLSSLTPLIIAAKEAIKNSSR
T2 sequence (P54764 20-986): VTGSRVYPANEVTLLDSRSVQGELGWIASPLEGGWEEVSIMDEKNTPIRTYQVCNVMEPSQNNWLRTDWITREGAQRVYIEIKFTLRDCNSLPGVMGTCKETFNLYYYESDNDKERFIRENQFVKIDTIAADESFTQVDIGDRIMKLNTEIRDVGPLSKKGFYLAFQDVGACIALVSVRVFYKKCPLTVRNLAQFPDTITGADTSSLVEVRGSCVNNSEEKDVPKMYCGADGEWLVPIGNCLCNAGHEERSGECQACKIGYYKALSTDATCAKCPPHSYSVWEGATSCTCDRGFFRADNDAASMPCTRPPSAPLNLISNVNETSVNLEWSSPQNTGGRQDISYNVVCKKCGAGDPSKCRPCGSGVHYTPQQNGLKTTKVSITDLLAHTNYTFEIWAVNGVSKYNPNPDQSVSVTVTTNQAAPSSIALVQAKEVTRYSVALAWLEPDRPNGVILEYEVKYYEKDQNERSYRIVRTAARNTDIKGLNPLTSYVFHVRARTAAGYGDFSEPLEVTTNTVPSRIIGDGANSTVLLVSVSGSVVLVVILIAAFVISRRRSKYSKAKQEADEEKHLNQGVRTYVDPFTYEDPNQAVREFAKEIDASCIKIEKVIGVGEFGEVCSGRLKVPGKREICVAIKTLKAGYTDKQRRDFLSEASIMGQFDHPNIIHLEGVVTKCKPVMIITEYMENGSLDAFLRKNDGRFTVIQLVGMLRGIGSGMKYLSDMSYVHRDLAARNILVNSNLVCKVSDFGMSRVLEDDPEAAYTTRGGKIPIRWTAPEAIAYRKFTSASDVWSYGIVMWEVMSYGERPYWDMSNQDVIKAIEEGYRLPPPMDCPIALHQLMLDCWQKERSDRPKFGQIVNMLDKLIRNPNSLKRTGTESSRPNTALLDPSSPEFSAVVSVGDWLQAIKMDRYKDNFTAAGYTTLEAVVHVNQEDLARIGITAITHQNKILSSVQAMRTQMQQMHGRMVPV

Row | SMILES | remaining binding at 1 µM (PAK3) [%] | remaining binding at 1 µM (EPHA4) [%] | remaining binding at 1 µM (ANKK1) [%] | remaining binding at 1 µM (KIT(D816V)) [%] | remaining binding at 1 µM (MAP4K4) [%] | remaining binding at 1 µM (ABL1-phosphorylated) [%] | remaining binding at 1 µM (KIT(L576P)) [%] | remaining binding at 1 µM (CAMK1D) [%] | remaining binding at 1 µM (PFTK1) [%] | remaining binding at 1 µM [1] [%] | remaining binding at 1 µM (PHKG2) [%] | remaining binding at 1 µM (TEC) [%] | remaining binding at 1 µM (NLK) [%]
1 | Clc1cc(NCC2CC2)c2ncc(-c3ccc4[nH]ncc4c3)n2n1 [compound 2, 6-Chloro-N-(cyclopropylmethyl)-3-(1H-indazol-5-yl)imidazo[1,2-b]pyridazin-8-amine] | 63 | 84 | 75 | 78 | 92 | 94 | 1.2 | 100 | 87 | 89 | 85 | 100 | 70
2 | O=C(CN1CCOCC1)N[C@H]1CC[C@H](Nc2cc(Cl)nn3c(-c4ccc5[nH]ncc5c4)cnc23)CC1 [compound 26] | 81 | 99 | 48 | 29 | 75 | 54 | 0 | 71 | 99 | 81 | 29 | 97 | 100
3 | CN1CCC(CNc2cc(Cl)nn3c(-c4cc5nc(Nc6ccccc6)[nH]c5cc4F)cnc23)CC1 [compound 31, 6-Chloro-3-(6-fluoro-2-(phenylamino)-1H-benzo[d]imidazol-5-yl)-N-((1-methylpiperidin-4-yl)methyl)imidazo[1,2-b]pyridazin-8-amine] | 100 | 100 | 100 | 81 | 100 | 81 | 61 | 85 | 96 | 100 | 98 | 88 | 100
